Test results from EP4578857A1, “CRYPTOLEPINE SALT DERIVATIVE, AND PREPARATION METHOD THEREFOR AND USE THEREOF” (Nankai University, priority 2023, dated 2025).
Like-named read-outs stand apart in the source and are kept apart here.

Experiments:
Assay type in all cases: in vivo
[1] = test system: tobacco Mosaic virus (TMV); assay: Anti-TMV activity: live protection function; settings: for TMV activity / antiTMV activity: 500µg/mL, Table 4 (all three modes); for TMV activity: compared with ribavirin; for inhibition at 500 µg/mL: Tobacco mosaic virus, read-out: Relative inhibition rate (%) Live protection function; for antiTMV activity: compared with commercial Ningnanmycin
Method: (§1) Determination of anti-tobacco Mosaic virus (TMV) activity by the following procedure:
(§2) The virus crude extract was centrifuged with polyethylene glycol at twice and refrigerated at 4°C for use. The absorbance of 260nm wavelength was determined by ultraviolet spectrophotometer, and the virus concentration was calculated according to the formula. Virus concentration(mg/ml) = (A260 × dilution ratio)(/E)^0.10 1cm^260nm . [formula]
(§3) After weighing, cryptolepine salt derivative, ningnanmycin and the original drug of ribavirin were dissolved in DMF to obtain 1×10^5µg/mL mother solution, and then diluted to the required concentration with 1‰ Tween 80 aqueous solution.
Select the 3-5 leaf stage of tobacco Xanthi nc with uniform growth, spray the whole plant, repeat each treatment 3 times, and set 1‰ Tween80 aqueous solution as control. 24h later, the leaf surface was coated with emery (500 mesh), the disease venom was dipped with a brush, and the whole leaf surface was gently rubbed twice along the direction of the branch pulse by using the brush, the leaf was supported by palm of hand, the virus concentration was 10µg/mL, and the leaf was washed by water after inoculation. After 3 days, the number of disease spots was recorded and the prevnetion and control effect was calculated.

[2] = test system: rice sheath blight strains; assay: Bactericidal activity test: resistance to rice sheath blight (live pot test); settings: for pest or weed control at 400 µg/mL: Oryza sativa, 144 h; for bactericidal activity against rice sheath blight: result in words
Method: Bactericidal activity test, the determination procedure is as follows: Test of resistance to rice sheath blight: Select uniformly growing rice seedlings and spray them on the leaves at the set concentration, set a water sprayring group as blank control, every treatment was repeated twice. After 24h, the rice seedlings were inoculated with rice sheath blight strains and placed at room temperature (25±4°C) for normal management after inoculation. The prevention and control effect was investigated by visual inspection 6 days after inoculation.

[3] = test system: tobacco Mosaic virus (TMV); assay: Anti-TMV activity: live treatment effect; settings: for inhibition at 500 µg/mL: Tobacco mosaic virus, 72 h, read-out: Relative inhibition rate (%) Live treatment effect
Method: as §1, §2, §3
Select the 3-5 leaf stage of tobacco Xanthi nc with uniform growth, use a brush to vaccinate the virus in the whole leaf, the virus concentration is 10µg/mL, and the leaf was washed with running water after inoculation. After the leaves were dried, the whole plant was sprayed with test sample, repeated 3 times every treatment, and 1‰ Tween 80 aqueous solution was set as control. After 3 days, the number of disease spots was recorded and the prevnetion and control effect was calculated.

[4] = test system: tobacco Mosaic virus (TMV); assay: Anti-TMV activity: living passivation activity test; settings: for inhibition at 500 µg/mL: Tobacco mosaic virus, read-out: Relative inhibition rate (%) Living passivation activity test
Method: as §1, §2, §3
Select the 3-5 leaf stage of tobacco Xanthi nc with uniform growth, mix the test sample agent with the same volume of virus juice to passivate for 30min, friction inoculation, virus concentration 20µg/mL, the leaf was washed with running water after inoculation, repeat 3 times, set 1‰ Tween 80 aqueous solution as control. 3 days later, the number of disease spots was calculated. [formula]
Anti-tobacco Mosaic virus passivation activity test of all compounds was at a treatment dose of 500µg/mL. The positive control was the commercial anti-plant virus agent viriazole.

[5] = Treatment dose 500 mg/L, tobacco Xanthi nc sprayed 24h before inoculation, virus 10µg/mL, disease spots counted after 3 days
[6] = 400mg/L leaf spray on rice seedlings, inoculated after 24h, visual inspection 6 days after inoculation
[7] = Treatment dose 500 mg/L, tobacco Xanthi nc inoculated (virus 10µg/mL), then sprayed, disease spots counted after 3 days
[8] = Treatment dose 500 mg/L, sample mixed with virus juice for 30min, then inoculated on tobacco Xanthi nc, virus 20µg/mL, 3 days
[9] = 400mg/L leaf spray on rice seedlings, inoculated after 24h, visual inspection 6 days after inoculation, read-out: Resistance to rice sheath blight (%)/400mg/L
[10] = live pot test, summary of Table 5 (400mg/L), read-out: bactericidal activity against rice sheath blight
[11] = live pot test, summary of Table 5 (400mg/L)

SMILES	TMV activity [1]	inhibition at 500 µg/mL [1] [%]	pest or weed control at 400 µg/mL [2, 9] [%]	inhibition at 500 µg/mL [3] [%]	inhibition at 500 µg/mL [4] [%]	further results
CCCCCNc1c2ccccc2[n+](C)c2c1[nH]c1ccccc12 [Example 24]	–	–	–	–	–	Relative inhibition rate (%) Live protection function [1, 5]: 36.9±3.7%; Resistance to rice sheath blight (%)/400mg/L [2, 6]: 30±0%; Relative inhibition rate (%) Live treatment effect [3, 7]: 30.3±0.8%; Relative inhibition rate (%) Living passivation activity test [4, 8]: 35.2±1.0%
CCCCCCCCCCCCNc1c2ccccc2[n+](C)c2c1[nH]c1ccccc12 [Example 25]	–	–	–	–	–	Relative inhibition rate (%) Live protection function [1, 5]: 27.3±3.0%; Resistance to rice sheath blight (%)/400mg/L [2, 6]: 20±0%; Relative inhibition rate (%) Live treatment effect [3, 7]: 22.1±1.1%; Relative inhibition rate (%) Living passivation activity test [4, 8]: 35.1±0.1%
CC(C)CCNc1c2ccccc2[n+](C)c2c1[nH]c1ccccc12 [Example 26]	better TMV activity than the ribavirin	43.1 ± 3.4	35 ± 5	45.4 ± 1.9	37 ± 3	–
CCCCC(CC)CNc1c2ccccc2[n+](C)c2c1[nH]c1ccccc12 (stereo not drawn) [Example 27]	better TMV activity than the ribavirin	52.1 ± 2.8	30	46.3 ± 4.2	47.9 ± 1.5	antiTMV activity [1]: comparable to that of commercial Ningnanmycin
C[n+]1c2ccccc2c(NCC2CC2)c2[nH]c3ccccc3c21 [Example 28]	–	20.5 ± 1.7	60	19.6 ± 0.2	25.3 ± 1.2	pest or weed control at 400 µg/mL [2, 10]: > 50%
C[n+]1c2ccccc2c(NC2CCCC2)c2[nH]c3ccccc3c21 [Example 29]	–	38.6 ± 4.6	30	36.5 ± 2.3	30.5 ± 0.9	–
C[n+]1c2ccccc2c(NCC2CCCCC2)c2[nH]c3ccccc3c21 [Example 30]	–	20.9 ± 2.9	35 ± 5	21.5 ± 1.1	30 ± 0.8	–
C[n+]1c2ccccc2c(NCCCC2CCCCC2)c2[nH]c3ccccc3c21 [Example 31]	–	29.5 ± 1.3	25 ± 5	28.9 ± 1.1	30.5 ± 0.2	–
C[n+]1c2ccccc2c(NCCN)c2[nH]c3ccccc3c21 [Example 32]	–	25.1 ± 4.3	30	30.1 ± 0.4	28.7 ± 2.1	–
C[n+]1c2ccccc2c(NCCCN)c2[nH]c3ccccc3c21.[I-] [Example 33]	better TMV activity than the ribavirin	–	–	–	–	antiTMV activity [1]: comparable to that of commercial Ningnanmycin; Relative inhibition rate (%) Live protection function [1, 5]: 57.9±4.6%; Resistance to rice sheath blight (%)/400mg/L [2, 6]: 40±0%; Relative inhibition rate (%) Live treatment effect [3, 7]: 51.7±3.6%; Relative inhibition rate (%) Living passivation activity test [4, 8]: 49.8±3.1%
C[n+]1c2ccccc2c(NCCCCN)c2[nH]c3ccccc3c21 [Example 34]	better TMV activity than the ribavirin	50.3 ± 2.1	20	43.9 ± 2	41.2 ± 4.6	antiTMV activity [1]: comparable to that of commercial Ningnanmycin
CC(N)CNc1c2ccccc2[n+](C)c2c1[nH]c1ccccc12 (stereo not drawn) [Example 35]	better TMV activity than the ribavirin	41 ± 2.4	25 ± 5	48 ± 1.5	44.3 ± 2.9	–
C[n+]1c2ccccc2c(NCC(C)(C)N)c2[nH]c3ccccc3c21 [Example 36]	–	29.8 ± 2.1	35 ± 5	30.1 ± 0.2	28.7 ± 1.1	–
CCNCCNc1c2ccccc2[n+](C)c2c1[nH]c1ccccc12 [Example 37]	–	31.6 ± 3.2	40	20.7 ± 1.2	33.6 ± 0.8	–
CNCCCNc1c2ccccc2[n+](C)c2c1[nH]c1ccccc12 [Example 38]	–	35 ± 4.1	30	40.2 ± 1	30.7 ± 1.2	–
CN(C)CC(C)(C)CNc1c2ccccc2[n+](C)c2c1[nH]c1ccccc12 [Example 39]	–	25.4 ± 3.8	25 ± 5	30.1 ± 0.2	28.9 ± 2.1	–
C[n+]1c2ccccc2c(NC2CCNC2)c2[nH]c3ccccc3c21 (stereo not drawn) [Example 40]	better TMV activity than the ribavirin	45.8 ± 3.8	20	39.5 ± 3.1	38.6 ± 2.5	–
C[n+]1c2ccccc2c(NC2CCNCC2)c2[nH]c3ccccc3c21 [Example 41]	better TMV activity than the ribavirin	40.8 ± 4.7	40	34.1 ± 2.3	30.6 ± 4	–
C[n+]1c2ccccc2c(NCC2CCNCC2)c2[nH]c3ccccc3c21.[I-] [Example 42]	–	–	–	–	–	Relative inhibition rate (%) Live protection function [1, 5]: 28.1±3.0%; Resistance to rice sheath blight (%)/400mg/L [2, 6]: 25±5%; Relative inhibition rate (%) Live treatment effect [3, 7]: 30.2±2.1%; Relative inhibition rate (%) Living passivation activity test [4, 8]: 25.1±0.2%
C[n+]1c2ccccc2c(NCC2CCCNC2)c2[nH]c3ccccc3c21 (stereo not drawn) [Example 43]	–	26.1 ± 1	30	28.3 ± 0.2	30 ± 2.1	–
CN1CCC(Nc2c3ccccc3[n+](C)c3c2[nH]c2ccccc23)CC1 [Example 44]	–	27.3 ± 4.4	55 ± 5	33.1 ± 0.3	35.3 ± 2.1	pest or weed control at 400 µg/mL [2, 10]: > 50%
CN1CCC(CNc2c3ccccc3[n+](C)c3c2[nH]c2ccccc23)CC1 [Example 45]	–	30.7 ± 2.6	30	28.1 ± 0.3	25.6 ± 1.1	–
CN1CCCC(CNc2c3ccccc3[n+](C)c3c2[nH]c2ccccc23)C1 (stereo not drawn) [Example 46]	better TMV activity than the ribavirin	44.7 ± 4	30	40.1 ± 0.9	46.3 ± 3.5	–
C[n+]1c2ccccc2c(NCCCN2CCCCC2)c2[nH]c3ccccc3c21 [Example 47]	–	36.4 ± 2.8	45 ± 5	33.3 ± 2	35.7 ± 0.3	pest or weed control at 400 µg/mL [2, 10]: > 50%
Cn1c2c3cc(Br)ccc3nc-2cc2ccccc21 [Reference Example 1, 5-methyl-7-bromo 5H-indolo[3,2-b]quinoline, reference compound]	–	–	0	–	–	inhibition at 500 µg/mL [1, 5]: 15.1 ± 2%; bactericidal activity against rice sheath blight [2, 11]: no activity; inhibition at 500 µg/mL [3, 7]: 10.5 ± 3%; inhibition at 500 µg/mL [4, 8]: 10.2 ± 1.8%
C[n+]1c2ccccc2c(N2CCN(CCN)CC2)c2[nH]c3ccc(Cl)cc3c21 [Reference Example 2, reference compound]	–	15.2 ± 1.1	0	18.1 ± 0.2	15.3 ± 2.1	bactericidal activity against rice sheath blight [2, 11]: no activity
